According to patent publication US11957671B2, “Benzodioxane modulators of leukotriene A4 hydrolase (LTA4H) for prevention and treatment of aging-associated diseases” (Alkahest, Inc., priority 2021, dated 2024):

Key:
aged C57BL/6 mice [1] = assay: Unbiased single cell RNA sequencing of brain tissue; format: in vivo, mouse; settings: 2.5 mg/kg bid P.O. 1 month
Method: Aged C57BL/6 mice (21 months of age) were treated for 1 month bid P.O. with vehicle or 2.5 mg/kg SC57461A (n=3 mice per treatment group). One cortical cap (cortex and hippocampus) from each mouse was isolated and cells were dissociated and sorted using Sony Multi-Application Cell Sorter MA900. Unbiased RNA sequencing from single brain cells were analyzed according to techniques described previously (Yousf H, et al., Bio Protoc., 8(22):e3091 (2018), which is herein incorporated by reference in its entirety).

[2] = system: hippocampal neurons of aged C57BL/6 mice; assay: Single cell RNA sequencing of NeuN+ hippocampal nuclei (CA1, DG); format: in vivo, mouse
Method: Aged C57BL/6 mice (21 months of age) were treated for 1 month bid po with vehicle, 1 mg/kg Compound 1, or 2.5 mg/kg SC57461A (n=3 mice per treatment group). NucSeq For Mouse Brain Tissue protocol from 10× Genomics was used to isolate mouse hippocampus nuclei. Approximately 65 mg of brain tissue were used per treatment. Nonidet P40 was used to lyse cell walls and isolated nuclei were stained with Draq5 and NeuN antibodies for FACS sorting. Approximately 5,000 nuclei were collected for each sample. Eight samples were collected for each treatment for a total of 40,000 nuclei per treatment. These samples were prepped for sequencing using the 10× Genomics Chromium Next GEM kit.
GO terms are generated using the g:Profiler Web server (https://bitt.cs.ut.ee/gprofiler) to analyze differential regulated gene lists. Reported are the top 20 gene ontology (GO terms) terms from the biological process category, sorted by significance as determined by P-value. This list was filtered to report significant GO terms that include less than 1000 genes.

mice = settings: previous studies; cited from earlier work
[3] = system: purified endothelial cells from the brains of aged C57BL/6 mice; assay: Microbulk qPCR of endothelial genes; format: in vivo, mouse; settings: 1 month bid P.O., 1 mg/kg Compound 1 or 2.5 mg/kg SC57461A
Method: (§1) Downregulation of the detrimental genes Bsg, Gbp4, and CXCL12 in purified endothelial cells from the brains of mice treated with LTA4H inhibitors Compound 1 or SC57461A were compared to those of vehicle treated mice. Gene expression was measured by qPCR from 500 sorted endothelial cells and was normalized to GAPDH control.
Aged C57BL/6 mice (21 months of age) were treated for 1 month bid P.O. with vehicle, 1 mg/kg Compound 1, or 2.5 mg/kg SC57461A (n=3 mice per treatment group). One cortical cap (cortex and hippocampus) from each mouse was isolated and cells were dissociated using Miltenyi Neutral Dissociation Kit (#130-092-628). Cells were sorted using Sony Multi-Application Cell Sorter MA900 into clean, RNAase free 200 uL PCR strip tube with 5 uL RNAlater at a concentration of 500 cells per tube. RNA was isolated follow kit protocol for Qiagen RNeasy Micro Kit (#74004). cDNA was synthesized using SuperScript III Kit Protocol and qPCR assays were run using TaqMan or SYBR green primers.
as §1, with “beneficial gene, Plat,” for “detrimental genes Bsg, Gbp4, and CXCL12”

aged mice = assay: CA1 synapse density by histology; format: in vivo, mouse; settings: preliminary data, pre- and post-synaptic protein staining
[4] = system: brain endothelial cells of aged C57BL/6 mice; assay: Single cell RNA sequencing of brain endothelial cells (BECs); format: in vivo, mouse
Method: Male C57BL/6 mice aged 20-21 months were treated with Vehicle or SC-57461A commercially available LTA4H inhibitor. The mice were dosed with SC-57461A at 2.5 mg/kg PO bid for one month. Mice were anesthetized and blood and tissues were collected for further analysis. Blood was collected via cardiac puncture in syringes pre-filled with Heparin. Brains were collected following ACSF perfusion and processed for single cell RNA sequencing of labeled endothelial cells.
Brain endothelial cells (BECs) were sorted, sequenced, and analyzed based on techniques known to those having ordinary skill in the art. […] Gates were determined to separate CD31-positive, CD11b-negative endothelial cells from CD11b-positive, CD31-negative microglia. […]
Aged C57BL/6 mice (21 months of age) were treated for 1 month bid P.O. with vehicle, 1 mg/kg Compound 1, or 2.5 mg/kg SC57461A (n=3 mice per treatment group). Brain endothelial cells were sorted, sequenced and analyzed as described in Example 12 (See Chen M B, et al., Cell Rep, 30(13):4418-32e4 (2020) which is herein incorporated by reference in its entirety).
GO terms are generated using the g:Profiler Web server (https://bitt.cs.ut.ee/gprofiler) to analyze differential regulated gene lists. Reported are the top 20 gene ontology (GO terms) terms from the biological process category, sorted by significance as determined by P-value. […]

aged C57BL/6 mice [5] = assay: Long term potentiation (LTP) in hippocampal slices; format: in vivo, mouse; settings: 1 month bid po, 1 mg/kg Compound 1 or 2.5 mg/kg SC57461A
Method: Aged C57BL/6 mice (21 months of age) were treated for 1 month bid po with vehicle, 1 mg/kg Compound 1, or 2.5 mg/kg SC57461A (n=5 mice per treatment group). Electrophysical recordings were performed at AfaSci, Inc, as follows. Animals were deeply anesthetized with halothane and decapitated. The brain was quickly taken out and placed into ice-cold artificial cerebrospinal fluid (ACSF) that was continuously bubbled with 5% CO2/95% O2. The ACSF was composed of (in mM) NaCl 130.0, KCl 2.5, KH2PO4 1.2, CaCl2 2.4, MgSO4 1.3, NaHCO326.0 and glucose 10.0 (pH 7.4). Hippocampal slices (400 μm thick) were prepared using a tissue slicer (Stoelting Co., IL) and incubated at room temperature in continuously oxygenated ACSF for at least 1 h before being recorded with submerged mode in chamber (Harvard Apparatus) at room temperature. Data were collected with an Axopatch-2B amplifier and pClamp 10.4 program (Axon Instruments) through digidata 1320A.
Field population spike (PS) was recorded using glass microelectrode filled with ACSF (resistance: 1-3 MO). Biphasic current pulses (0.2 ms duration for one phase, 0.4 ms in total) were delivered in 10 s intervals through a concentric bipolar stimulating electrode (FHC, Inc.). […] To record field population spikes in dorsal dentate gyrus, the stimulating electrode was placed on the hippocampal fissure to stimulate the bypassing perforant pathway fibers and the recording electrode was placed on inner part of granular cell layer. To record field EPSPs in DG, the stimulating electrode was placed on the hippocampal fissure to stimulate the bypassing perforant pathway fibers and the recording electrode was placed on inner part of granular cell layer. Slices were recorded within 8 hours after dissection. Titanic stimulation consisted of 2 trains of 100 pulses (0.4 ms bipolar pulse duration, 100 Hz) lasting for 1 second with 5 seconds of interval. The slope of EPSP and amplitude of population spike were measured from the initial phase of negative wave with Clampfit10.4. Each data point was measured with average of 3 consecutive traces. LTP was plotted as the percentage to baseline following high frequency stimulation (mean±SEM).

[6] = 1 month bid po, 1 mg/kg Compound 1 or 2.5 mg/kg SC57461A

Q: With `CN(CCCOc1ccc(Cc2ccccc2)cc1)CCC(=O)O.Cl` [SC-57461A, reference compound] as the molecule, how does the “Biological Process GO terms, astrocytes” value (aged C57BL/6 mice [1]) read?
A: The value was “changes to astrocytes”.

Q: And the “Biological Process GO terms, endothelial” value (aged C57BL/6 mice [1])?
A: The value was “changes to endothelial”.

Q: What about the “Biological Process GO terms, pericytes” value (aged C57BL/6 mice [1]) of the same molecule?
A: Its value is “changes to pericyte”.

Q: And the astrocyte gene changes (aged C57BL/6 mice [1])?
A: The astrocyte gene changes was “many significant gene changes to astrocytes”.

Q: What about the “endothelial cell gene changes” value (aged C57BL/6 mice [1]) of the same molecule?
A: The value was “many significant gene changes to brain endothelial cells”.

Q: And the pericyte gene changes (aged C57BL/6 mice [1])?
A: Its pericyte gene changes is “many significant gene changes to pericytes”.

Q: What about the “CA1 neuronal gene changes” value [2, 6] of the same molecule?
A: The value was “many significant gene changes to neurons in the CA1 region of the hippocampus”.

Q: And the “DG neuronal gene changes” value [2, 6]?
A: The value was “many significant gene changes to neurons in the DG region of the hippocampus”.

Q: And the “Dcc gene expression in the dentate gyrus” value [2, 6]?
A: The value was “not significantly impacted”.

Q: What about the “Spock3 gene expression in the dentate gyrus” value [2, 6] of the same molecule?
A: The value was “not significantly impacted”.

Q: And the “Biological Process GO terms, CA1 hippocampal neurons” value ([2]; long-term treatment)?
A: Its value is “changes to synapses”.

Q: What about the “Biological Process GO terms, DG hippocampal neurons” value ([2]; long-term treatment) of the same molecule?
A: Its value is “changes to synapses”.

Q: What about the memory domains improved (mice) of the same molecule?
A: The memory domains improved was “only improved spatial memory”.

Q: And the Bsg gene expression [3]?
A: The Bsg gene expression was “down regulation of Bsg gene expression”.

Q: And the CXCL12 gene expression [3]?
A: Its CXCL12 gene expression is “down regulation of CXCL12 gene expression”.

Q: What about the Gpb4 gene expression [3] of the same molecule?
A: The Gpb4 gene expression was “down regulation of Gpb4 gene expression”.

Q: What about the Plat gene expression [3] of the same molecule?
A: The Plat gene expression was “up regulation of Plat gene expression”.

Q: And the “synapse density in the CA1 region of the hippocampus” value (aged mice)?
A: The value was “no trend in increased CA1 synapse density”.

Q: And the “Biological Process GO terms, BECs” value ([4]; 2.5 mg/kg PO bid one month)?
A: Its value is “changes to the endothelial milieu”.

Q: What about the “endothelial cell gene changes, enriched brain endothelial cells” value ([4]; 2.5 mg/kg bid P.O. 1 month) of the same molecule?
A: The value was “many significant gene changes to brain endothelial cells”.

Q: What about the “LTP, CA1 region of the hippocampus” value (aged C57BL/6 mice [5]) of the same molecule?
A: The value was “did not show the same LTP increase”.

Q: What about the “LTP, DG region of the hippocampus” value (aged C57BL/6 mice [5]) of the same molecule?
A: The value was “did not show the same LTP increase”.
